Measurements from patent US7105679B2, “Heteroatom containing tetracyclic derivatives as selective estrogen receptor modulators” (priority 2001, dated 2006).
Like-named read-outs stand apart in the source and are kept apart here. Blank lines part the entries; values can stand above or below the compound they belong to.

Legend:
Ishikawa cells = experiment: Alkaline Phosphatase Assay in Human Endometrial Ishikawa Cells (agonist and antagonist mode); format: cell-based; details: number in brackets = number of tests, NA = no detected activity at test concentration; for IC50: antagonist mode with 10 nM 17β-estradiol; for EC50: agonist mode
Protocol: This assay was run according to the procedure described by Albert et a., Cancer Res, […], 50(11), 330-6-10, with minor modification.
Ishikawa cells (from ATCC) were maintained in DMEM/F12 (1:1) phenol red free medium (Gibco) supplemented with 10% calf serum (Hyclone). 24 hours prior to testing, the medium was changed to DMEM/F12 (1:1) phenol red free containing 2% calf serum.
Compounds to be tested in the agonist mode were added to the culture media at varying concentrations. Compounds to be treated in the antagonist mode were prepared similarly, and 10 nM 17β-estradiol was also added to the culture media. The cells were then incubated at 37° C. for 3 days. On the fourth day, the media was remove, 1 volume of 1× Dilution Buffer (Clontech) was added to the well followed by addition of 1 volume of Assay Buffer (Clontech). The cells were then incubated at room temperature for 5 minutes. […] The cells were incubated at room temperature for 10 minutes and then quantified on a luminometer. The increase of chemiluminescence over vehicle control was used to calculate the increase in alkaline phosphatase activity.

[1] = molecular target: T1, human estrogen receptor α (Homo sapiens, UniProt P03372); experiment: Estrogen Receptor α Flash Plate Assay (binding of radiolabeled estrogen)
T1 construct: purchased Panvera
T1 sequence (P03372 1-595): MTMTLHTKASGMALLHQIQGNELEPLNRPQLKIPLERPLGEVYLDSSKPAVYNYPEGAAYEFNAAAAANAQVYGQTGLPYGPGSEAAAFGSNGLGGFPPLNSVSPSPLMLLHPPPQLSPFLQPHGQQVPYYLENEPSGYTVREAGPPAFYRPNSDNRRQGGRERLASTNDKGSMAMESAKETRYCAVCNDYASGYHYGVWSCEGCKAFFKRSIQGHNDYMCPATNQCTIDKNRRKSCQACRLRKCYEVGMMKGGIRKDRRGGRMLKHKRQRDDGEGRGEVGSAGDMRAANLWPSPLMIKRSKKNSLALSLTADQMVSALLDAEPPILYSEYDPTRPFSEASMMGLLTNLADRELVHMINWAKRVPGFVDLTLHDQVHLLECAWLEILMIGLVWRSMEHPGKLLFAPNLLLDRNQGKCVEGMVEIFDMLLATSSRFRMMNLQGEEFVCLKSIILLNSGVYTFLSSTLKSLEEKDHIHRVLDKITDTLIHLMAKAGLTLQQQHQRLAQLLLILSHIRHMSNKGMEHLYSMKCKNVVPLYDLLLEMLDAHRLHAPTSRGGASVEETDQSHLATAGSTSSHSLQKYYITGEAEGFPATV
Protocol: This assay monitors binding of radiolabeled estrogen to the estrogen receptor. It is performed on a BioMek 2000 (Beckman). Plates are read in a scintillation counter (Packard TopCount), with decreased counts an indication of binding of a compound to the receptor.
The plate was sealed and incubated at 4° C. overnight.
On day two, each well was washed three times with 200 μL PBS, pH 7.2, at room temperature. To each well was then added 98 μL radiolabeled estrogen (0.5 nM, which equals 6 nCi for a 120 Ci/mmol batch, Amersham), diluted in ESB and 5 mM dithiothreitol (DTT). To individual wells were then added 2.5 μL test compound diluted in 30% (v/v) dimethyl sulfoxide/50 mM HEPES, pH 7.5. The wells were mixed three times by aspiration, the plate sealed and incubated at room temperature for one hour. The wells were then counted for 1 min in a TopCount scintillation counter (Packard).

MCF-7 cells = experiment: MCF-7 Cell Proliferation Assay (14C-thymidine, agonist and antagonist mode); format: cell-based; details: number in brackets = number of tests, NA = no detected activity at test concentration
Protocol: This assay was run according to the procedure described by Welshons, et al., (Breast Cancer Res. Treat., 1987, 10(2), 169-75), with minor modification.
Briefly, MCF-7 cells (from Dr. C. Jordan, Northwestern University) were maintained in RPMI 1640 phenol red free medium (Gibco) in 10% FBS (Hyclone), supplemented with bovine insulin and non-essential amino acid (Sigma). The cells were initially treated with 4-hydoxyltamoxifen (10^−8 M) and let stand at 37° C. for 24 hours. Following this incubation with tamoxifen, the cells were treated with compounds at various concentrations.
Compounds to be tested in the agonist mode were added to the culture media at varying concentrations. Compounds to be treated in the antagonist mode were prepared similarly, and 10 nM 17β-estradiol was also added to the culture media. The cells were incubated for 24 hours at 37° C. Following this incubation, 0.1 μCi of ^14C-thymidine (56 mCi/mmol, Amersham) was added to the culture media and the cells were incubated for an additional 24 hours at 37° C. The cells were then washed twice with Hank's buffered salt solution (HBSS) (Gibco) and counted with a scintillation counter. The increase in the ^14C-thymidine in the compound treated cells relative to the vehicle control cells were reported as percent increase in cell proliferation.

[2] = flash plate binding, 0.5 nM radiolabeled estrogen, number in brackets = No. of determinations, NA = no detected activity at test concentration, read-out: Estrogen Receptor α in μM (No.)
[3] = antagonist mode with 10 nM 17β-estradiol
[4] = Homo sapiens, MCF7, antagonist mode with 10 nM 17β-estradiol
[5] = Homo sapiens, MCF7, agonist mode

SMILES: CC(C)(C)C(=O)Oc1ccc2c(c1)OC(c1ccc(OCCN3CCCCC3)cc1)C1=C2COc2cc(OC(=O)C(C)(C)C)ccc21 (single isomer, unassigned) [Compound 24]
EC50 (Ishikawa cells): > 10000 nM | IC50 (Ishikawa cells): 66 nM | IC50 [1, 2]: 5.95 µM | EC50 (MCF-7 cells; agonist mode): > 10000 nM | IC50 (MCF-7 cells; [3]): 672 nM

SMILES: CC(C)(C)C(=O)Oc1ccc2c(c1)OC(c1ccc(OCCN3CCCCC3)cc1)C1=C2COc2cc(OC(=O)C(C)(C)C)ccc21 (single isomer, unassigned) [Compound 25]
EC50 (Ishikawa cells): > 10000 nM | IC50 (Ishikawa cells): 235 nM | IC50 [1, 2]: 1.2 µM | EC50 (MCF-7 cells; agonist mode): > 10000 nM | IC50 (MCF-7 cells; [3]): 1390 nM

SMILES: CC(C)(C)C(=O)Oc1ccc2c(c1)OC(c1ccc(OCCN3CCCCC3)cc1)C1=C2COc2cc(O)ccc21 (single isomer, unassigned) [Compound 89, 2,2-Dimethyl-propionic acid 8-hydroxy-11S*-(+)-[4-(2-piperidin-1-yl-ethoxy)-phenyl]-5,11-dihydro-chromeno[4,3-c]chromen-2-yl ester]
IC50 (Ishikawa cells): 10 nM | IC50 [1, 2]: > 1 µM | IC50 (MCF-7 cells; [3]): 845 nM

SMILES: CC(C)(C)C(=O)Oc1ccc2c(c1)OCC1=C2C(c2ccc(OCCN3CCCCC3)cc2)Oc2cc(O)ccc21 (single isomer, unassigned) [Compound 90, 2,2-Dimethyl-propionic acid 8-hydroxy-5S*(+)-[4-(2-piperidin-1-yl-ethoxy)-phenyl]-5,11-dihydro-chromeno[4,3-c]chromen-2-yl ester]
IC50 (Ishikawa cells): 57 nM | IC50 [1, 2]: 0.0066 µM | IC50 (MCF-7 cells; [3]): 1670 nM

SMILES: COc1ccc2c(c1)O[C@@H](c1ccc(OCCN3CCCCC3)cc1)C1=C2COc2cc(O)ccc21 (single isomer, unassigned) [Compound 176, 8-Methoxy-5S-[4-(2-piperidin-1-yl-ethoxy)-phenyl]-5,11-dihydro-chromeno[4,3-c]chromen-2-ol]
IC50 [1, 2]: 0.024 µM

SMILES: CC(C)(C)C(=O)Oc1ccc2c(c1)OC(c1ccc(OCCN3CCCCC3)cc1)C1=C2CCOc2cc(OC(=O)C(C)(C)C)ccc21 (single isomer, unassigned) [Compound 179]
IC50 (Ishikawa cells): 9 nM | IC50 (MCF-7 cells; [3]): 1870 nM

SMILES: CC(C)(C)C(=O)Oc1ccc2c(c1)OC(c1ccc(OCCN3CCCCC3)cc1)C1=C2CCOc2cc(OC(=O)C(C)(C)C)ccc21 (single isomer, unassigned) [Compound 180]
IC50 (Ishikawa cells): 0.9 nM | IC50 (MCF-7 cells; [3]): 655 nM

SMILES: COC1Oc2cc(OC(=O)C(C)(C)C)ccc2C2=C1c1ccc(OC(=O)C(C)(C)C)cc1OC2c1ccc(OCCN2CCCCC2)cc1 (centres unmarked) [Compound 27]
IC50 [1, 2]: 0.69 µM

SMILES: CC(C)(C)C(=O)Oc1ccc2c(c1)OC(C)(c1ccc(OCCN3CCCC3)cc1)C1=C2COc2cc(OC(=O)C(C)(C)C)ccc21 (centres unmarked) [Compound 30, 2,2-Dimethyl-propionic acid, 8-(2,2-dimethyl-propionyloxy)-5-methyl-5-[4-(2-pyrrolidin-1-yl-ethoxy)-phenyl]-5,11-dihydro-chromeno[4,3-c]chromen-2-yl ester]
EC50 (Ishikawa cells; Homo sapiens): > 10000 nM | IC50 (Ishikawa cells; Homo sapiens): 630 nM | EC50 (MCF-7 cells; [5]): > 10000 nM | IC50 (MCF-7 cells; [4]): 2200 nM

SMILES: CC(C)(C)C(=O)Oc1ccc2c(c1)OC(C)(c1ccc(OCCN3CCCCCC3)cc1)C1=C2COc2cc(OC(=O)C(C)(C)C)ccc21 (centres unmarked) [Compound 33, 11-[4-(2-azepan-1-yl-ethoxy)-phenyl]-8-(2,2-dimethyl-propionyloxy)-11-methyl-5,11-dihydro-chromeno[4,3-c]chromen-2-yl ester]
EC50 (Ishikawa cells; Homo sapiens): > 10000 nM | IC50 (Ishikawa cells; Homo sapiens): 1000 nM | EC50 (MCF-7 cells; [5]): > 10000 nM | IC50 (MCF-7 cells; [4]): 4800 nM

The next lines start with the values.

IC50 (Ishikawa cells): 3000 nM | IC50 [1, 2]: 0.014 µM | IC50 (MCF-7 cells; [3]): ≥ 10000 nM
SMILES: OCCCOc1ccc(C2Oc3cc(O)ccc3C3=C2c2ccc(O)cc2OCC3)cc1 (racemic) [Compound 183]

IC50 (Ishikawa cells): > 10000 nM | IC50 [1, 2]: 0.0089 µM | IC50 (MCF-7 cells; [3]): > 10000 nM
SMILES: COC(=O)COc1ccc(C2Oc3cc(O)ccc3C3=C2c2ccc(O)cc2OCC3)cc1 (racemic) [Compound 190]

IC50 (Ishikawa cells): 130 nM | IC50 [1, 2]: 0.0039 µM | IC50 (MCF-7 cells; [3]): 182 nM
SMILES: Oc1ccc2c(c1)OC(c1ccc(OCCN3CCCCC3)cc1)C1=C2CCOc2cc(O)ccc21 (single isomer, unassigned) [Compound 99, 5R*-(+)-[4-(2-Piperidin-1-yl-ethoxy)-phenyl]-11,12-dihydro-5H-6,13-dioxa-benzo[3,4]cyclohepta[1,2-a]naphthalene-2,8-diol]

IC50 (Ishikawa cells; Homo sapiens): 19 nM | IC50 [1]: 0.0026 µM | IC50 (MCF-7 cells; [4]): 75 nM
SMILES: Oc1ccc2c(c1)OC(c1ccc(OCCN3CCCCC3)cc1)C1=C2CCOc2cc(O)ccc21 (single isomer, unassigned) [Compound 100, 5S*-(−)-[4-(2-Piperidin-1-yl-ethoxy)-phenyl]-11,12-dihydro-5H-6,13-dioxa-benzo[3,4]cyclohepta[1,2-a]naphthalene-2,8-diol]

IC50 (Ishikawa cells): 1620 nM | IC50 (MCF-7 cells; [3]): 4700 nM
SMILES: Oc1ccc2c(c1)OC(c1ccc(OCCN3CCCCC3)cc1)C1=C2CCCOc2cc(O)ccc21 (single isomer, unassigned) [Compound 125]

IC50 (Ishikawa cells): 78 nM | IC50 (MCF-7 cells; [3]): 245 nM
SMILES: Oc1ccc2c(c1)OC(c1ccc(OCCN3CCCCC3)cc1)C1=C2CCCOc2cc(O)ccc21 (single isomer, unassigned) [Compound 126]

IC50 (Ishikawa cells): 4940 nM | IC50 [1, 2]: 0.061 µM | IC50 (MCF-7 cells; [3]): > 10000 nM
SMILES: Oc1ccc2c(c1)OC(c1ccc(OCCN3CCCCC3)cc1)C1=C2CCOc2ccccc21 (single isomer, unassigned) [Compound 131]

IC50 (Ishikawa cells): 548 nM | IC50 [1, 2]: 0.0048 µM | IC50 (MCF-7 cells; [3]): 1280 nM
SMILES: Oc1ccc2c(c1)OC(c1ccc(OCCN3CCCCC3)cc1)C1=C2CCOc2ccccc21 (single isomer, unassigned) [Compound 132]

IC50 (Ishikawa cells): 850 nM | IC50 (MCF-7 cells; [3]): 2940 nM
SMILES: CN(C)CCOc1ccc(C2Oc3ccccc3C3=C2c2ccc(O)cc2OCC3)cc1 (single isomer, unassigned) [Compound 150]

IC50 (Ishikawa cells): 605 nM | IC50 (MCF-7 cells; [3]): 2760 nM
SMILES: CN(C)CCOc1ccc(C2Oc3ccccc3C3=C2c2ccc(O)cc2OCC3)cc1 (single isomer, unassigned) [Compound 151]

IC50 (Ishikawa cells): 405 nM | IC50 (MCF-7 cells; [3]): 687 nM
SMILES: CN(C)CCOc1ccc(C2Oc3cc(O)ccc3C3=C2c2ccc(O)cc2OCC3)cc1 (single isomer, unassigned) [Compound 163]

IC50 (Ishikawa cells): 61 nM | IC50 (MCF-7 cells; [3]): 293 nM
SMILES: CN(C)CCOc1ccc(C2Oc3cc(O)ccc3C3=C2c2ccc(O)cc2OCC3)cc1 (single isomer, unassigned) [Compound 164]

IC50 (Ishikawa cells): 128 nM
SMILES: Oc1ccc2c(c1)OC(c1ccc(OCCN3CCCCCC3)cc1)C1=C2CCOc2cc(O)ccc21 (single isomer, unassigned) [Compound 165]

IC50 (Ishikawa cells): 41 nM
SMILES: Oc1ccc2c(c1)OC(c1ccc(OCCN3CCCCCC3)cc1)C1=C2CCOc2cc(O)ccc21 (single isomer, unassigned) [Compound 166]
